Measured values published in ChEMBL document CHEMBL1201862, “PubChem BioAssay data set” (2004).
Calls of active or inactive are those of the source.

Tests used:
Vero = test: mammalian cell viability reduction – secondary assay, cytotoxicity control for West Nile virus antiviral project, dose response (AID 1650); format: functional; details: Chlorocebus sabaeus
[1] = target: Delta-type opioid receptor (Homo sapiens, UniProt P41143); test: Counterscreen for agonists of heterodimerization of the mu 1 (OPRM1) and delta 1 (OPRD1) opioid receptors: Luminescence-based cell-based high throughput dose response assay to identify agonists of OPRD1 homodimerization. [Related pubchem assays (depositor defined):AID504326, AID504355, AID504692, AID504904, AID504905]; format: functional
Mu-type opioid receptor = Mu-type opioid receptor (Homo sapiens, UniProt P35372); test: Counterscreen for agonists of heterodimerization of the mu 1 (OPRM1) and delta 1 (OPRD1) opioid receptors: Luminescence-based cell-based high throughput dose response assay to identify agonists of OPRM1 homodimerization.; format: functional;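 further: U2OS cells expressing OPRM1 and beta-arrestin as split beta-galactosidase partners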
[2] = target: 5-hydroxytryptamine receptor 5A (Homo sapiens, UniProt P47898); test: Counterscreen for agonists of OPRM1-OPRD1 heterodimerization: luminescence-based cell-based high throughput dose response assay to identify agonists of 5-hydroxytryptamine (serotonin) 5A receptor (HTR5A). [Related pubchem assays (depositor defined):AID504326, AID504355, AID504692, AID504904, AID504905]; format: functional
INS1 = test: INS-1E survival protection against cytokine death – cell-based, luminescence, retest, dose response (AID 449756); format: functional; details: Rattus norvegicus;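 further: cell death triggered by IL-1 beta plus TNF-alpha plus IFN-gamma mixture; protective hits raise ATP signal compared with cytokine alone wells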
[3] = cytotoxicity toward MDA-MB-231 breast cancer cells – cell-based, CellTiter-Glo luminescence, cherry-pick, cytotoxicity control for RAD54 inhibitor project, dose response (AID 651692); format: functional
[4] = target: DNA repair and recombination protein RAD54-like (Homo sapiens, UniProt Q92698); test: RAD54 Holliday junction migration blockers – biochemical, fluorescence, cherry-picked samples, dose series, confirmation (AID 651657); format: functional
[5] = target: T1, DNA repair protein RAD52 homolog (Homo sapiens, UniProt P43351); format: functional, biochemical
T1 sequence (P43351 whole entry): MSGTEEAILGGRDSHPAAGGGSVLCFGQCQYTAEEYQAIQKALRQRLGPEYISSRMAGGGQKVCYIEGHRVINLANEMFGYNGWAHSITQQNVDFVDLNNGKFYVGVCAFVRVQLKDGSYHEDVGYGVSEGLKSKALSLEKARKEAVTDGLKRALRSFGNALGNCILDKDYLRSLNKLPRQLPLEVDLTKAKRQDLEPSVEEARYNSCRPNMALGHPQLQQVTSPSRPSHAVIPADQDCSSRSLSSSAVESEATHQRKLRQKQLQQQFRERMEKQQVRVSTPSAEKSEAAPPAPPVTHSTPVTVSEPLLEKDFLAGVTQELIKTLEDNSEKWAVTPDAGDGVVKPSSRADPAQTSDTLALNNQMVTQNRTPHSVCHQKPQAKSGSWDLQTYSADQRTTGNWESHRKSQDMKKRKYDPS

[6] = microbe, parasite or virus in culture; format: functional; details: Mycobacterium tuberculosis
H9c2 = test: cells; format: functional, cell-based; details: Rattus norvegicus, H9c2, Myocardium;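 further: confirmatory concentration-response retest of ultra-high-throughput screening hits for modulation of myocardial damage; cell death induced by hydrogen peroxide oxidative stress; compound pretreatment for 60 min then peroxide exposure for 2 h; potency is for protecting the cells against peroxide damage rather than for killing them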
[7] = bead-based luminescence quenchers, dual-tagged ARNT – biochemical, AlphaScreen, cherry-pick, artefact control for ARNT-TACC3 interaction inhibitor project, dose response (AID 651705); format: functional;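 further: AlphaScreen bead proximity signal that flags compounds interfering with the detection technology; potency reflects signal decrease which marks the compound as an assay artifact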
Large T antigen = Large T antigen (Simian virus 40, UniProt P03070); format: functional, Betapolyomavirus macacae;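 further: Confirmatory-stage PubChem screen for compounds that inhibit SV40 T antigen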
[8] = Trypanosoma cruzi growth suppression in host cells – NIH3T3 host cells, beta-gal luminescence, confirmation (AID 2044); format: functional, cell-based;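 further: intracellular parasites grown in NIH/3T3 mouse fibroblasts as host cells; luminescent beta-galactosidase reporter signal from transgenic T. cruzi replicating inside host cells; inhibitors lower the luminescence signal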
[9] = NIH3T3 cell viability loss – ATP luminescence, mouse fibroblasts, counter-screen, dose response (AID 2010); format: functional, cell-based;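 further: cells exposed to compound for about 90 hours before reading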
[10] = target: Glucose-6-phosphate 1-dehydrogenase (Homo sapiens, UniProt P11413); test: inhibition of Homo sapiens G6PD, dose series – biochemical, fluorescence, selectivity assay for P. falciparum G6PD inhibitor project, dose response (AID 504792); format: functional
Nonstructural protein 1 = Nonstructural protein 1 (Influenza A virus, UniProt Q194T2); format: functional, Influenza A virus (A/California/07/2009(H1N1))
[11] = target: T2, Replicative DNA helicase DnaB (Mycobacterium tuberculosis, UniProt P9WMR3); test: DnaB intein splicing inhibitors, dose response, biochemical, cell-free fluorescence (AID 449749); format: functional
T2 sequence (P9WMR3 whole entry): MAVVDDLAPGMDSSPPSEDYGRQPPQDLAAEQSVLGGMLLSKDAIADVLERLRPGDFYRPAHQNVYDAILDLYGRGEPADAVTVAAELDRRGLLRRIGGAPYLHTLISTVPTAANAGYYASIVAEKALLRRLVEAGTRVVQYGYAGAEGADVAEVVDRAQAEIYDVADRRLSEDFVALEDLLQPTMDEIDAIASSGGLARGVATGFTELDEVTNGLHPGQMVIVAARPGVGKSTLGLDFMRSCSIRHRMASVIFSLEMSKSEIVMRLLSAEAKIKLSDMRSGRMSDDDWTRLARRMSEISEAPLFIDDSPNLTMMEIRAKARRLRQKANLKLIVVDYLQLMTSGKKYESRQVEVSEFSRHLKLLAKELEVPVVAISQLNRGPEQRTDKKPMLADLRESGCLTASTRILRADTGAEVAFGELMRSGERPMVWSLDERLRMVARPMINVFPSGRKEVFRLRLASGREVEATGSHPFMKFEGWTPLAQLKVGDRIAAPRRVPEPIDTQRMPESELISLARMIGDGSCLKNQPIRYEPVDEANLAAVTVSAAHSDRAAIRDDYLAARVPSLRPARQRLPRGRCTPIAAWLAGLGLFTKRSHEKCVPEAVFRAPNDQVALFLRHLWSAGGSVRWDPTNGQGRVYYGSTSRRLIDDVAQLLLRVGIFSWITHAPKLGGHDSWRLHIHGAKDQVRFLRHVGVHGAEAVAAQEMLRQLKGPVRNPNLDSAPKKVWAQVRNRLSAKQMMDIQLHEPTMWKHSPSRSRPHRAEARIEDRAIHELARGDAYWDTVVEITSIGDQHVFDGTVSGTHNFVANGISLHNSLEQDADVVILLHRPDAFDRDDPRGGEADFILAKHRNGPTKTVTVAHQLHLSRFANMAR

Protein RecA = target: T3, Protein RecA (Mycobacterium tuberculosis, UniProt P9WHJ3); test: Fluorescence Cell-Free Homogeneous Dose Retest to Identify Inhibitors of RecA-Intein Splicing Activity. [Related pubchem assays (depositor defined):AID2097, AID2223, AID489010, AID492950]; format: functional
T3 sequence (P9WHJ3 whole entry): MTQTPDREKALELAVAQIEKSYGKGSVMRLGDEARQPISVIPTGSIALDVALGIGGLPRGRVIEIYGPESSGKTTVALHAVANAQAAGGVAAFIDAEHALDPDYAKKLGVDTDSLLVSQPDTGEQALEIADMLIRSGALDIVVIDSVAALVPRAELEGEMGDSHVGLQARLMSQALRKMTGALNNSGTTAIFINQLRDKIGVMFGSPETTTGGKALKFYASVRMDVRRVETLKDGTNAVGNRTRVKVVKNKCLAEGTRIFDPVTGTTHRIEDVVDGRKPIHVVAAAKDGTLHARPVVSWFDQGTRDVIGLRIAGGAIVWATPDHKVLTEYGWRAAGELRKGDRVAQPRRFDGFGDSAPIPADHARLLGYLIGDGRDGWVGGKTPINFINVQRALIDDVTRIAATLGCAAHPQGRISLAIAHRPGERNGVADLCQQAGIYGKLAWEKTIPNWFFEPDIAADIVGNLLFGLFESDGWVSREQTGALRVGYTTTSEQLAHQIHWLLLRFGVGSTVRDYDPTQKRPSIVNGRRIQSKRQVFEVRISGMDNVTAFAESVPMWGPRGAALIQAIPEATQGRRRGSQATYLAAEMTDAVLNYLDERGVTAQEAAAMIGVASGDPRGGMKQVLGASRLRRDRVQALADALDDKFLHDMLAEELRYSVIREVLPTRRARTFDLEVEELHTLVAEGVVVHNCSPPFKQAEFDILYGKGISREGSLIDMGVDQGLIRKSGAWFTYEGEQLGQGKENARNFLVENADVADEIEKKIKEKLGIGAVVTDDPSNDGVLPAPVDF

[12] = viability loss in THP-1 monocytes – THP-1 cells, cytotoxicity control for Vif-APOBEC3G degradation inhibitor project, dose response (AID 1117359); format: functional; details: THP-1
[13] = target: Glutathione-S-transferase (Schistosoma japonicum, UniProt Q26513); test: GST-antibody interaction or FRET quenching – biochemical, TR-FRET, artefact control for Vif-APOBEC3G degradation inhibitor project, dose response (AID 1117362); format: functional
Cytochrome P450 3A4 = Cytochrome P450 3A4 (Homo sapiens, UniProt P08684); details: Potency;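 further: confirmatory qHTS run detecting inhibitors and substrates of CYP3A4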
[14] = target: Voltage-gated inwardly rectifying potassium channel KCNH2 (Homo sapiens, UniProt Q12809); details: Potency;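 further: confirmatory quantitative high-throughput screen measuring inhibition of hERG channel activity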
[15] = target: Aryl hydrocarbon receptor (Homo sapiens, UniProt P35869); details: Potency;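 further: confirmatory quantitative high-throughput screen measuring activation of the AhR signaling pathway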
Interleukin-8 [16] = target: T4, Interleukin-8 (Homo sapiens, UniProt P10145); test: Dose Response confirmation of uHTS small molecule hits for cystic fibrosis induced NFkb Inhibitors in a TNFa-induced IL8 counterscreen.; format: functional; details: read-out: IC50_Mean
Interleukin-8 [17] = target: T4, Interleukin-8; test: Dose Response confirmation of uHTS small molecule hits for cystic fibrosis induced NFkb Inhibitors in a PAF-induced IL8 counterscreen.; format: functional; details: read-out: IC50_Mean
[18] = target: T5, Probable nicotinate-nucleotide adenylyltransferase (Staphylococcus aureus (strain N315), UniProt P65502); format: functional, Staphylococcus aureus subsp. aureus N315;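 on IC50 Mean: confirmatory dose-response retesting of NadD inhibitor hits first found in an ultra-high-throughput screen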
[19] = target: T5, Probable nicotinate-nucleotide adenylyltransferase; format: functional, Staphylococcus aureus subsp. aureus N315; details: read-out: IC50_Mean
[20] = target: T6, Low molecular weight phosphotyrosine protein phosphatase (Homo sapiens, UniProt P24666); format: functional; details: read-out: IC50_Mean
T6 sequence (P24666 whole entry): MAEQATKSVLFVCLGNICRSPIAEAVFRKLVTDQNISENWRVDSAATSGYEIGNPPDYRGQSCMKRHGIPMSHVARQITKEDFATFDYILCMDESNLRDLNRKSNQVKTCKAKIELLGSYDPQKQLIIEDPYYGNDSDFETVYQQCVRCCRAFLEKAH

[21] = target: T7, ATP-dependent translocase ABCB1 (Homo sapiens, UniProt P08183); test: inhibition of BCRP-mediated JC-1 efflux – Ig-MXP3 cells, flow cytometry, set 2, dose response (AID 504566); format: functional; details: read-out: EC50_MICROM_;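 further: flow cytometry median green fluorescence of retained JC-1 dye; potency of efflux pump inhibition measured as rising substrate retention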
[22] = target: T7, ATP-dependent translocase ABCB1; test: P-gp JC-1 efflux blockade concentration-response – Jurkat-DNR cells, flow cytometry, set 2, dose response (AID 504569); format: functional; details: read-out: EC50_MICROM_;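 further: potency of pump inhibitors that raise cellular JC-1 green fluorescence up to the nicardipine level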
[23] = target: T8, Small ubiquitin-related modifier 1 (Homo sapiens, UniProt P63165); test: SUMO1 protein interaction blockers, potency – biochemical, fluorescence polarization, uHTS hits, dose response (AID 624382); format: functional; details: read-out: IC50_Mean
[24] = target: Small ubiquitin-related modifier 2 (Homo sapiens, UniProt P61956); test: SUMO2 binding disruption by SUMO1 hits – biochemical, FRET, human SUMO2, uHTS hits, selectivity assay for SUMO1 interaction inhibitor project, dose response (AID 624384); format: functional; details: read-out: IC50_Mean
[25] = target: T8, Small ubiquitin-related modifier 1; test: SUMO1 protein-protein binding blockers, potency – biochemical, FRET, dose response (AID 624383); format: functional; details: read-out: IC50_Mean

T4 sequence (P10145 whole entry): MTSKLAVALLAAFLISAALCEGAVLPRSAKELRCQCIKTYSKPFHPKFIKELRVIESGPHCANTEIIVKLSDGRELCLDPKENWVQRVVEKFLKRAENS
T5 sequence (P65502 whole entry): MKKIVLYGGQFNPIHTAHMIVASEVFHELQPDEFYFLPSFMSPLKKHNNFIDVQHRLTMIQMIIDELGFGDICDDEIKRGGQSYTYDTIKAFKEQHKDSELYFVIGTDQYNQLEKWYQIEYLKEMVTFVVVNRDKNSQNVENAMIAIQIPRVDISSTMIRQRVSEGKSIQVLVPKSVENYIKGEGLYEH
T7 sequence (P08183 whole entry): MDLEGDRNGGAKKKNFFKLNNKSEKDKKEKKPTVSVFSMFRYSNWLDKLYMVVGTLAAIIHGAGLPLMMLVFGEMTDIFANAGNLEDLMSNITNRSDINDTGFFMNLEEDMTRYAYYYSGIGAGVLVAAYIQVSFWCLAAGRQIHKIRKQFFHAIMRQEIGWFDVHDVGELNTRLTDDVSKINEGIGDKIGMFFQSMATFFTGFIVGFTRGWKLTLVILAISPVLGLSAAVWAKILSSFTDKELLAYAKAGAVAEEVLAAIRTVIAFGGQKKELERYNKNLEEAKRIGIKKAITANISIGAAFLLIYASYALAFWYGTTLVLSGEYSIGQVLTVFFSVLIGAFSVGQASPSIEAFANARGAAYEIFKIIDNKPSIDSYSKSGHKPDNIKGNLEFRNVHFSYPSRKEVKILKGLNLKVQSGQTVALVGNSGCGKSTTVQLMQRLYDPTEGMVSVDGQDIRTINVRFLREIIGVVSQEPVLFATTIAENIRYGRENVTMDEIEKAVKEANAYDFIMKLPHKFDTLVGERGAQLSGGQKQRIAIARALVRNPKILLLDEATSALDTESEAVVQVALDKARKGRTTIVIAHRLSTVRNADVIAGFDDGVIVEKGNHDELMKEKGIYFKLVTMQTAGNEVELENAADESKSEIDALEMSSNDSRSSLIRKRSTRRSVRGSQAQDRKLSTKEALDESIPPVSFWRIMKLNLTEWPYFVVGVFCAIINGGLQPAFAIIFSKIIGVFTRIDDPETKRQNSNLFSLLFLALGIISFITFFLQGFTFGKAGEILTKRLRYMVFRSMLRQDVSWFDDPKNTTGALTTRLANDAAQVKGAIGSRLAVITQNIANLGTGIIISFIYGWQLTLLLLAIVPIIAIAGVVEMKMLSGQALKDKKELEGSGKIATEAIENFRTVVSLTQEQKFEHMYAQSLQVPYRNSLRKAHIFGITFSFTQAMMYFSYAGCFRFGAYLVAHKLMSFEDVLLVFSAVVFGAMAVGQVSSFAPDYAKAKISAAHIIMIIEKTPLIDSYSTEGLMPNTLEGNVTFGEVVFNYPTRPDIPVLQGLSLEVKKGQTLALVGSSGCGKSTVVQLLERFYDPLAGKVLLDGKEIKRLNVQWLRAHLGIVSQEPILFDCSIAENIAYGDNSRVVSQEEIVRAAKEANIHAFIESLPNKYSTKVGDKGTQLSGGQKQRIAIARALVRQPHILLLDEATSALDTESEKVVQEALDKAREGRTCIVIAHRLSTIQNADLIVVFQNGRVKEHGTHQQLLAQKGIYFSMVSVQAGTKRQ
T8 sequence (P63165 whole entry): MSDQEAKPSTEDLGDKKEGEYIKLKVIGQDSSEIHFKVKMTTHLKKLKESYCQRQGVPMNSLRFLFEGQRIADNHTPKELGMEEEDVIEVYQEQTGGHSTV
Sequence of Delta-type opioid receptor (P41143 whole entry): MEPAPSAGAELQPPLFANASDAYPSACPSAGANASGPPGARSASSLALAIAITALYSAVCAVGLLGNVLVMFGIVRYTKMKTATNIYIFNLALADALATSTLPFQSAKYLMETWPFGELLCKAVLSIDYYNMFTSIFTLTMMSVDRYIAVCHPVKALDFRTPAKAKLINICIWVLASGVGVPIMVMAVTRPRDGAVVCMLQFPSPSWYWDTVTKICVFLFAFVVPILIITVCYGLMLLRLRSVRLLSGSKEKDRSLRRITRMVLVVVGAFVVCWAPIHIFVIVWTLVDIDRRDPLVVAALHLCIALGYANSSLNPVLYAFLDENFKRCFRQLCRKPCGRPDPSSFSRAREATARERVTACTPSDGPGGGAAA
Sequence of Aryl hydrocarbon receptor (P35869 whole entry): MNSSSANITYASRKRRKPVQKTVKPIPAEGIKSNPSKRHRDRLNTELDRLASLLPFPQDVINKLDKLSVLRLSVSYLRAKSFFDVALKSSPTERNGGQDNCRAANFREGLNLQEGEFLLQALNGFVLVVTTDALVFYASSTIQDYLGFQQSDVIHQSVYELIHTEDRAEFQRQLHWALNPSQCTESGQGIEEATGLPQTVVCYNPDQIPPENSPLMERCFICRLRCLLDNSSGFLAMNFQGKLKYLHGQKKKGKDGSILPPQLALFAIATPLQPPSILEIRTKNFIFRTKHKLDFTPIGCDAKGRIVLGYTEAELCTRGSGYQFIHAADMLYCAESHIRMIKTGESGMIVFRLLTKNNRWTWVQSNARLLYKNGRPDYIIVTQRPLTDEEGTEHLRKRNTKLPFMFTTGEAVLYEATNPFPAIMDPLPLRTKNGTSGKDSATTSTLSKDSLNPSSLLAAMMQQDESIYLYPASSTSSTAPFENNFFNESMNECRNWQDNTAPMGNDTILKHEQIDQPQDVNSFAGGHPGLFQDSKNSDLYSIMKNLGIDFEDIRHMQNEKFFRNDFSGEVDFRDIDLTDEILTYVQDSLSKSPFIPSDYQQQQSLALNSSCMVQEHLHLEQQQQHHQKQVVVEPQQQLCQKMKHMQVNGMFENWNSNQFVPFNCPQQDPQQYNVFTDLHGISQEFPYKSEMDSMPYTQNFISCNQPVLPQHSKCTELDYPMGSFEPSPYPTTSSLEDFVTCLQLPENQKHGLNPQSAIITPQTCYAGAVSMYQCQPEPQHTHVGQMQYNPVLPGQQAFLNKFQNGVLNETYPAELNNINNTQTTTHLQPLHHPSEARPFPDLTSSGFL
Sequence of Small ubiquitin-related modifier 2 (P61956 whole entry): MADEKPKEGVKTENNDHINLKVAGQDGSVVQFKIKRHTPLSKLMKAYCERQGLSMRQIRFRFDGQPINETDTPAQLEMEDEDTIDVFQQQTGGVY
Sequence of Nonstructural protein 1 (Q194T2 whole entry): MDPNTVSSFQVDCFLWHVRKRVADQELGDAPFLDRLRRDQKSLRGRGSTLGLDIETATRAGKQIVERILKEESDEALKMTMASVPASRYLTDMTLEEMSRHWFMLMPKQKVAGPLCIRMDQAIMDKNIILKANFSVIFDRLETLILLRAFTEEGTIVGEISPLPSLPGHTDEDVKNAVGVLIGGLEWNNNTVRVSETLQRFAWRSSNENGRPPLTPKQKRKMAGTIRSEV
Sequence of DNA repair and recombination protein RAD54-like (Q92698 whole entry): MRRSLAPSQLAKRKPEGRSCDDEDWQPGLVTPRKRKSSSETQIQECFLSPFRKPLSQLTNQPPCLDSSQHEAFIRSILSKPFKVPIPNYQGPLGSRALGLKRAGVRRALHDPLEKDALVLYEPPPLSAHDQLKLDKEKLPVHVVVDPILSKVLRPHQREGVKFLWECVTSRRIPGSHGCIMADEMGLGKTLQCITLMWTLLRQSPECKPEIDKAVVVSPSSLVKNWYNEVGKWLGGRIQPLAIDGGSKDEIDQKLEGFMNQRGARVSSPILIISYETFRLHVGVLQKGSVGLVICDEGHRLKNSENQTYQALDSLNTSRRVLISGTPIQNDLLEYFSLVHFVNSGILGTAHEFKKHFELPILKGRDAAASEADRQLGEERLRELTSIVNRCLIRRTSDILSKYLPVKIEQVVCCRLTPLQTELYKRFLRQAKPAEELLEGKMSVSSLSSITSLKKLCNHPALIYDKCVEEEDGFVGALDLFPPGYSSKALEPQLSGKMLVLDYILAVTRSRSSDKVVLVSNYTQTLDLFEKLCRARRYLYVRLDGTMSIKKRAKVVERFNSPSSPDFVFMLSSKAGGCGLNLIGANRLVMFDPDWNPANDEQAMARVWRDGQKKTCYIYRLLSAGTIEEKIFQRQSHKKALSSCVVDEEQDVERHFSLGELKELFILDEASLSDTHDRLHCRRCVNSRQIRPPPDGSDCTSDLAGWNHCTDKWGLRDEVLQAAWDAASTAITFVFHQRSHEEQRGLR
Sequence of Glucose-6-phosphate 1-dehydrogenase (P11413 whole entry): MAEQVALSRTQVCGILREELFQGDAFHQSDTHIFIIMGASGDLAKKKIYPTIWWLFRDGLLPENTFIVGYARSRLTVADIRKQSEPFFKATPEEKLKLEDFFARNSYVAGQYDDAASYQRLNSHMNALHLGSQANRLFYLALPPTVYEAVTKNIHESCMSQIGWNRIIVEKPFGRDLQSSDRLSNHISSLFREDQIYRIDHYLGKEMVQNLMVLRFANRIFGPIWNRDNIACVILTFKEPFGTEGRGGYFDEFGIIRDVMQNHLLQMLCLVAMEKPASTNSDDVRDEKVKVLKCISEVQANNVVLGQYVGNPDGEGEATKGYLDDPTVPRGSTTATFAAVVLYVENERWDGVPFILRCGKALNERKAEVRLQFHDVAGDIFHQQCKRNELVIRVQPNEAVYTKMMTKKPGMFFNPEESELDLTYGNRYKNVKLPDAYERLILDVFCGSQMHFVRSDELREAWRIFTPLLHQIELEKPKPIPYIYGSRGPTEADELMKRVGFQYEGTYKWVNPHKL
Sequence of 5-hydroxytryptamine receptor 5A (P47898 whole entry): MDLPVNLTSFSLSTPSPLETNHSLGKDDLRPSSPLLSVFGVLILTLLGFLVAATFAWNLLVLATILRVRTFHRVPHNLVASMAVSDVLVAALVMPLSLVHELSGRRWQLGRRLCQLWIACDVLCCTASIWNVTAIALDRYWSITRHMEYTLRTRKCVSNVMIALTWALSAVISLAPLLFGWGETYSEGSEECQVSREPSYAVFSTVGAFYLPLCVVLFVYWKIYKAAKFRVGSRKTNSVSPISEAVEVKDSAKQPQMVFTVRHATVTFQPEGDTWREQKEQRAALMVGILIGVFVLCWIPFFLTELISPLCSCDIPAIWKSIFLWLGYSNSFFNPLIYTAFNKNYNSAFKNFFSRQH

In the case of `CCOc1ccc(Nc2c3ccccc3nc3ccccc23)cc1`, the CC50 (Vero) is reported as 6.47 µM (active), the EC50 [1] is reported as > 92.5 µM (inactive) and the EC50 (Mu-type opioid receptor) is reported as 43.8 µM (inactive). The EC50 [2] was > 92.5 µM (inactive), the AC50 (INS1) was 5.05 µM (active) and the AC50 [3] was 46.9 µM (active). For the same compound, the AC50 [4] was 7.28 µM (active) and the AC50 [5] was 1.57 µM (active).

In the case of `CCc1cc(C(=O)Nc2nc(-c3ccccn3)cs2)sc1C`, the CC50 [6] is reported as 32 µM (active), the IC50 (H9c2) is reported as > 79 µM (inactive) and the AC50 [7] is reported as 103 µM (active).

In the case of `CC(C)Nc1ccc(Nc2ccccc2)cc1`, the IC50 (Large T antigen) is reported as 9.01 µM (active), the EC50 [8] is reported as 2.52 µM (active) and the EC50 [9] is reported as > 60 µM (not active). The IC50 [10] was > 80 µM (inactive), the IC50 (Nonstructural protein 1) was 19.2 µM (active) and the AC50 [11] was 127 µM (active). For the same compound, the EC50 (Protein RecA) was 76.4 µM (active), the AC50 (INS1) was 6.94 µM (active) and the CC50 [12] was 26.2 µM (active). For the same compound, the IC50 [13] was 58 µM (active), the AC50 (Cytochrome P450 3A4) was 25.1 µM (inconclusive) and the AC50 [14] was 15.8 µM (inconclusive). The AC50 [15] was 44.7 µM (inconclusive).

In the case of `Cc1ccccc1C(=O)N1CCN(c2ccc(NC(=O)c3cccc(OC(C)C)c3)cc2)CC1`, the IC50 (Interleukin-8 [16]) is reported as > 79 µM (inactive) and the IC50 (Interleukin-8 [17]) is reported as 39.6 µM (inactive).

For `Cc1ccc(S(=O)(=O)Nc2ccc(Nc3nccn4c(-c5ccc6ccccc6c5)cnc34)cc2)cc1`, the IC50 [18] was 9.78 µM (active) and the IC50 [19] was 16.3 µM (active).

With `C[C@@H](NC(=O)c1ncn2c1c(O)nc1ccc(Br)cc12)c1ccccc1` the IC50 [20] was 25 µM (inactive).

With `Cc1nc2ncnn2c(N2CCN(C(=O)c3ccco3)CC2)c1Cc1ccccc1` the EC50 [21] was 2.14 µM (active) and the EC50 [22] was 4.97 µM (active).

For `N#C/C(=C(\O)Nc1cccc(Cl)c1)c1nc2ccccc2[nH]1`, the IC50 [23] was 66 µM (inactive), the IC50 [24] was > 66 µM (inactive) and the IC50 [25] was 52.6 µM (inactive).
